Earlier results in US20190328869A1, “IMMUNOTHERAPEUTIC PRODUCT AND MDSC MODULATOR COMBINATION THERAPY” (Transgene SA, priority 2016, published 2019).

Experiments:
circulating CD34+ MDSCs = details: head and neck cancer patients; cited from earlier work
[1] = tested on: circulating CD33+HLA-DR− MDSCs; details: patients with metastatic renal cell carcinoma; cited from earlier work
[2] = tested on: HBV-specific CD4+ and CD8+ T cells in PBMCs; details: PBMCs from chronically HBV infected patients; cited from earlier work

SMILES | circulating CD34+ MDSCs (circulating CD34+ MDSCs) | clinical outcome (circulating CD34+ MDSCs) | circulating CD33+HLA-DR− MDSCs [1] | proliferation and IFN-γ production by HBV-specific CD4+ and CD8+ T cells [2]
C=C1CC[C@H](O)C/C1=C/C=C1\CCC[C@]2(C)[C@@H]([C@H](C)CCCC(C)(C)O)CC[C@@H]12 [25-hydroxyvitamin D3] | reduced the circulating CD34^+ MDSCs | failed to improve clinical outcome |  | 
CC1=C(/C=C/C(C)=C/C=C/C(C)=C/C(=O)O)C(C)(C)CCC1 [ATRA, All-trans retinoic acid] |  |  | decreased circulating CD33^+HLA-DR^− MDSCs | restore the proliferation and IFN-γ production
